# In ChEMBL document CHEMBL4270488, “Antibacterial Compounds from Marine Bacteria, 2010-2015” (J Nat Prod, 2017):
# Where a SMILES comes first, the peptide text is derived from it. [ ]: non-standard residue; d: D form. The star is where a group is joined. Tridecanoyl(3R-OH,11-Me) = CCC(C)CCCCCCC[C@@H](O)CC(=O)*; X2 = CCC(C)CC(C)CCCCC[C@@H](O)CC(=O)*; X1 = CCC(C)CC(C)CCCC[C@@H](O)CC(=O)*
# Assays:
# [1] = test system: Enterococcus faecalis; test: Antibacterial activity against Enterococcus faecalis ATCC 29212; type: functional
# [2] = test system: Bacillus thuringiensis; test: Antibacterial activity against Bacillus thuringiensis SCSIO BT01; type: functional
# [3] = test system: Staphylococcus aureus; test: Antibacterial activity against Staphylococcus aureus ATCC 29213; type: functional
# [4] = test system: Bacillus subtilis; test: Antibacterial activity against Bacillus subtilis by broth dilution assay; type: functional
# [5] = test system: Staphylococcus aureus; test: Antibacterial activity against Staphylococcus aureus by broth dilution assay; type: functional
# [6] = test system: Pseudomonas aeruginosa; test: Antibacterial activity against Pseudomonas aeruginosa by broth dilution assay; type: functional
# [7] = test system: Salmonella typhi; test: Antibacterial activity against Salmonella typhi by broth dilution assay; type: functional, Salmonella enterica subsp. enterica serovar Typhi; conditions: Salmonella enterica
# [8] = test system: Staphylococcus aureus; test: Antibacterial activity against methicillin-resistant Staphylococcus aureus; type: functional
# [9] = test system: Bacillus subtilis; test: Antibacterial activity against Bacillus subtilis SCSIO BS01; type: functional
# [10] = test system: Proteus vulgaris; test: Antibacterial activity against Proteus vulgaris by serial dilution assay; type: functional
# [11] = test system: Micrococcus luteus; test: Antibacterial activity against Micrococcus luteus by serial dilution assay; type: functional
# [12] = test system: Escherichia coli; test: Antibacterial activity against Escherichia coli by serial dilution assay; type: functional
# [13] = test system: Bacillus subtilis; test: Antibacterial activity against Bacillus subtilis by serial dilution assay; type: functional
# [14] = test system: Escherichia coli; test: Antibacterial activity against Escherichia coli by broth dilution assay; type: functional
compound,measurement,setting,value
Cc1cc(=O)n(C)c2c1C(=O)c1c(C)cc(=O)n3c1[C@@]2(O)C[C@]3(C)O,MIC,[1],1 to 4 µg/mL
same,MIC,[2],1 to 4 µg/mL
same,MIC,[3],1 to 4 µg/mL
CCC(C)CCCCCCC[C@@H](O)CC(=O)N[C@@H](CCC(=O)O)C(=O)N[C@@H](CC(C)C)C(=O)O (stereo partly drawn),MIC,[4],0.01 µg/mL
same,MIC,[5],0.01 µg/mL
same,MIC,[6],0.03 µg/mL
same,MIC,[7],0.03 µg/mL
CC[C@]1(O)C[C@@]2(O)c3c(c(C)cc(=O)n3C)C(=O)c3c(C)cc(=O)n1c32,MIC,[1],1 to 4 µg/mL
same,MIC,[2],1 to 4 µg/mL
same,MIC,[3],1 to 4 µg/mL
"CCC(C)CCCCCCC[C@@H](O)CC(=O)N[C@@H](CCC(=O)O)C(=O)N[C@@H](CC(C)C)C(=O)N[C@@H](CC(C)C)C(=O)N[C@@H](C(=O)N[C@@H](CC(=O)O)C(=O)N[C@@H](CC(C)C)C(=O)N[C@@H](CC(C)C)C(=O)O)C(C)C (stereo partly drawn) ({Tridecanoyl(3R-OH,11-Me)}-ELL[dV]DLL-OH)",MIC,[4],16 µg/mL
same,MIC,[5],16 µg/mL
same,MIC,[6],16 µg/mL
same,MIC,[7],16 µg/mL
CC(=O)[C@H]1[C@@H]2C=C[C@@H]3[C@H]4C/C=C\C(=O)NCCC[C@H]5C(O)=C(C(=O)/C=C/[C@@H]4C[C@@H]3[C@H]2C[C@H]1C)C(=O)N5C,MIC,[8],32 to 64 µg/mL
C=C1CC[C@H](Cl)C(C)(C)[C@@H]1C[C@@]12OC(C)(C)[C@H](Cl)C[C@]1(Cl)C(=O)c1c(O)cc(O)cc1C2=O,MIC,[2],≤ 2 µg/mL
same,MIC,[9],≤ 2 µg/mL
same,MIC,[3],≤ 2 µg/mL
CCC(C)CC(C)CCCC[C@@H](O)CC(=O)N[C@@H](CCC(=O)O)C(=O)N[C@@H](CC(C)C)C(=O)N[C@@H](CC(C)C)C(=O)N[C@@H](CC(C)C)C(=O)O (stereo partly drawn) (X1-ELLL-OH),MIC,[4],0.03 µg/mL
same,MIC,[5],0.03 µg/mL
same,MIC,[6],0.01 µg/mL
same,MIC,[7],0.01 µg/mL
CC[C@H]1[C@@H]2C=C[C@@H]3[C@H]4/C=C/CC(=O)NCCC[C@H]5C(O)=C(C(=O)/C=C/[C@@H]4C[C@@H]3[C@H]2C[C@H]1C)C(=O)N5C,MIC,[8],1 to 4 µg/mL
CCC(C)CC(C)CCCCC[C@@H](O)CC(=O)N[C@@H](CCC(=O)O)C(=O)N[C@@H](CC(C)C)C(=O)N[C@@H](CC(C)C)C(=O)N[C@@H](C(=O)N[C@@H](CC(=O)O)C(=O)N[C@@H](CC(C)C)C(=O)N[C@@H](CC(C)C)C(=O)O)C(C)C (stereo partly drawn) (X2-ELL[dV]DLL-OH),MIC,[4],32 µg/mL
same,MIC,[5],16 µg/mL
same,MIC,[6],16 µg/mL
same,MIC,[7],32 µg/mL
O=C1NC(=O)C(c2ccc(O)c([N+](=O)[O-])c2)=C1c1ccc(O)cc1,MIC,[10],25 to 100 µg/mL
same,MIC,[11],25 to 100 µg/mL
same,MIC,[12],25 to 100 µg/mL
same,MIC,[13],25 to 100 µg/mL
CC(C)=CCc1cc(C(=O)Nc2c(O)c3ccc(O[C@@H]4OC(C)(C)[C@H](O)[C@@H](O)[C@H]4O)c(C)c3oc2=O)cc(O)c1O,MIC,[8],> 64 µg/mL
O=C1N/C(=N\O)C(c2ccc(O)c([N+](=O)[O-])c2)=C1c1ccccc1,MIC,[10],3 to 25 µg/mL
same,MIC,[11],3 to 25 µg/mL
same,MIC,[12],3 to 25 µg/mL
same,MIC,[13],3 to 25 µg/mL
O=C1NC(=O)C(c2c[nH]c3ccccc23)=C1c1ccc(O)c([N+](=O)[O-])c1,MIC,[10],3 to 25 µg/mL
same,MIC,[11],3 to 25 µg/mL
same,MIC,[12],3 to 25 µg/mL
same,MIC,[13],3 to 25 µg/mL
CC(C)=CCC/C(C)=C/C[C@]1(O)C(=O)c2cc(O)cc(O)c2C(=O)[C@@]1(Cl)CC=C(C)C,MIC,[2],≤ 2 µg/mL
same,MIC,[9],≤ 2 µg/mL
same,MIC,[3],≤ 2 µg/mL
O=C1N/C(=N\O)C(c2ccccc2)=C1c1ccc(O)c([N+](=O)[O-])c1,MIC,[10],3 to 25 µg/mL
same,MIC,[11],3 to 25 µg/mL
same,MIC,[12],3 to 25 µg/mL
same,MIC,[13],3 to 25 µg/mL
CC1(C)OC2=C(C[C@H]1Cl)C(=O)c1c(O)cc(O)cc1C2=O,MIC,[2],4 to 32 µg/mL
same,MIC,[9],4 to 32 µg/mL
same,MIC,[3],4 to 32 µg/mL
CC[C@H]1[C@@H]2C=C[C@@H]3[C@H]4C/C=C\C(=O)NCCC[C@@H]5NC(=O)C(=C5O)C(=O)/C=C/[C@@H]4C[C@@H]3[C@H]2C[C@H]1C,MIC,[8],1 to 4 µg/mL
COC(=O)N[C@H]1[C@@H](C)O[C@@H](O[C@H]2C/C=C(\C)[C@@H]3C=C[C@@H]4[C@@H](O[C@H]5C[C@@H](O[C@H]6C[C@@H](O)[C@@H](O)[C@H](C)O6)[C@@H](O)[C@H](C)O5)[C@@H](C)C[C@H](C)[C@H]4[C@]3(C)C(=O)C3=C(O)[C@@]4(C[C@@H](C)C(C)=C[C@H]4/C=C/2C)OC3=O)C[C@]1(C)[N+](=O)[O-],MIC,[3],6.2 to 50 µg/mL
CO[C@@H]1[C@@H](OC(N)=O)[C@@H](O)[C@H](Oc2ccc3c(O)c(NC(=O)c4cc(O)c(O)c(CC=C(C)C)c4)c(=O)oc3c2C)OC1(C)C,MIC,[8],8 to 16 µg/mL
CC(C)=CCC/C(C)=C/C[C@@]12OC(C)(C)[C@H](Cl)C[C@]1(Cl)C(=O)c1c(O)cc(O)cc1C2=O,MIC,[2],≤ 2 µg/mL
same,MIC,[9],≤ 2 µg/mL
same,MIC,[3],≤ 2 µg/mL
CC(C)=CCc1cc(C(=O)Nc2c(O)c3ccc(O[C@@H]4OC(C)(C)[C@H](O)[C@@H](O)[C@H]4O)c(C)c3oc2=O)ccc1O,MIC,[8],> 64 µg/mL
C[C@@H](O)CCC/C=C/C=C/[C@H](O)C[C@@H](O)C/C=C\C=C\C(=O)O,MIC,[4],≥ 16 µg/mL
same,MIC,[14],≥ 16 µg/mL
O=C1NC(=O)C(c2ccc(O)cc2)=C1c1ccccc1,MIC,[10],25 to 100 µg/mL
same,MIC,[11],25 to 100 µg/mL
same,MIC,[12],25 to 100 µg/mL
same,MIC,[13],25 to 100 µg/mL
